Reference: patent US20220372560A1, “METHODS FOR DETECTING OLIGONUCLEOTIDES” (Takeda Pharmaceutical Company Limited, priority 2019, published 2022)

Experiment: Persistence of PMO and P-PMO in serum and tissues two weeks post-last dose (FIGS. 5a, 5b)
Type: in vivo
Details: mice
Protocol: PMO or P-PMO serial dilutions for standard curves and quality controls in 5.0% mouse serum, and 5.0 mg/ml or 1.0 mg/ml tissue homogenates were made using 1×TE buffer supplemented with 0.1% v/v Triton X-100 with a starting concentration of 51.2 nM PMO/P-PMO. Serum samples were diluted 20-fold, and tissues were homogenized and diluted to 5.0 mg/ml or 1.0 mg/ml tissue homogenates with the same buffer. 200 μL of calibrator solution, quality control, and/or sample were treated with 20 μL of 40 mg/ml trypsin (purchased as lyophilized powder from Sigma-Aldrich) at 37° C. overnight in a deep 1.0-mL 96-well plate on thermomixer C (600 rpm) to cleave the peptide component and release the PMO. 40 μL of 2.5 nM oligonucleotide probe in hybridization buffer (with 0.1% serum) was added to each well. The plate was then sealed, incubated at 65° C. for 15 minutes (600 rpm), and allowed to cool at room temperature for 15 minutes. […] The intensity of fluorescence at 444 nm excitation and 555 nm emission was measured by a […] SpectraMax MT5 microplate reader.
In order to test the persistence of oligonucleotides, serum and various tissues were also analyzed two weeks post-last dose. Serum levels for both PMO and P-PMO treated mice were measured in the 1 nM range. At this time point the overall oligonucleotide levels in the tissues analyzed were also similar (FIG. 5a). […]

**Q.** Which results are given for “PMO: 25-mer PMO antisense sequence for mouse dystrophin exon-23, 5′-GGCCAAACCTCGGCTTACCTGAAAT-3′ (SEQ ID NO: 1), not conjugated to a peptide (all phosphorodiamidate morpholino (PMO))”?
**A.** serum levels: ~1 nM; overall oligonucleotide levels in the tissues analyzed, PMO compared with P-PMO (absolute concentrations (FIG. 5a)): similar
